From patent EP1621201A1, “Hesperidin for prophylaxis and treatment of diseases of the central nervous system, in particular Alzheimer's and Parkinson's diseases, for therapy after stroke as well as for chronic pain” (NeuroCode AG, priority 2004, dated 2006)

System: Fischer-344 Ratten
Assay: Tele-Stereo-EEG in freely moving rats (field potentials from frontal cortex, hippocampus, striatum, reticular formation; power density spectra)
Assay type: in vivo, Ratte
Conditions: rat
Method: Die Veränderungen der EEG-Frequenzen nach intraperitonealer Gabe von Salzlösung (Kontrolle) bzw. einer Dosis von Hesperidin (80 und 160 mg/kg Körpergewicht) wurden bestimmt.
Die Untersuchungen wurden analog der durch W. Dimpfel beschriebenen Methode (Dimpfel W Preclinical data base of pharmaco-specific rat EEG fingerprints (Tele-Stereo-EEG). Eur J Med Res (2003) 8: 199-207) folgendermaßen durchgeführt:
Zwölf männlichen erwachsenen Fischer-344 Ratten (Tag-Nacht konvertiert) wurden im Alter von 6 Monaten 4 bipolar konzentrische Elektroden zusammen mit einem Mikrostecker auf einer gemeinsamen Basisplatte implantiert. Der Stecker diente der Aufnahme eines 4-Kanal-Senders zur telemetrischen Übertragung der aus frontalem Kortex, Hippokampus, Striatum und Formation Reticularis abgeleiteten Feldpotentiale. Die Signale wurden auf einem Computer System (Software "EEG-Analyse", Betriebssystem OS Science, Laborrechner "LabTeam" der Firma MediSyst, Linden, DE) in Echtzeit einer Fast-Fourier-Transformation unterworfen und die Leistungsdichtespektren jeweils über 15 bis 60 Minuten gemittelt. Die Unterteilung der Spektren in 6 verschiedene Frequenzbereiche erlaubte die Erfassung pharmako-spezifischer Veränderungen in Bezug auf die jeweils vor Applikation gemessenen Vorwerte innerhalb dieser Frequenzbänder.
Zum Applikationsprotokoll der Substanzen: die Substanzen wurden i.p. 45 Minuten nach Beginn der Messungen (Vorwert) injiziert. Fünf Minuten später wurden die Messungen wieder gestartet, mindestens über die nächsten 5 Stunden kontinuierlich analysiert und in 60-minütigen Perioden zusammengefaßt. Die Testsubstanz wurde in einer Dosierung von 80 und 160 mg/kg appliziert. Die experimentelle Serie wurde mit der Injektion von Salzlösung (Kontrolle), die zu keiner auffälligen Änderung führte, begonnen.
Der statistische Vergleich der Versuche zu den Ergebnissen, die nach Gabe von Salzlösung gemessen wurde, erfolgte mit Hilfe einer multivariaten Analyse nach Ahrens und Läuter (siehe H. Ahrens, J. Läuter "Mehrdimensionale Varianzanalyse" (1974), Akademie Verlag, Berlin) auf der Basis der Veränderungen innerhalb der einzelnen Frequenzbänder in allen Hirnregionen als Variablen.

## COc1ccc([C@@H]2CC(=O)c3c(O)cc(O[C@@H]4O[C@H](CO[C@@H]5O[C@@H](C)[C@H](O)[C@@H](O)[C@H]5O)[C@@H](O)[C@H](O)[C@H]4O)cc3O2)cc1O [Hesperidin, Hesperetin 7-rhamnoglucosid]
80 or 160 mg/kg Hesperidin i.p., Fig. 3a and 3b
  zeitabhängige Veränderungen der EEG-Frequenzen (delta, theta und alpha2 Frequenzen): nehmen statistisch signifikant und dauerhaft ab
i.p. single dose, compared with Tacrin, Piracetam, Memantine, Metamizol, Amphetamin, no correlation with patterns of drugs for other indications
  correlation of the EEG pattern with patterns of drugs for neurodegenerative diseases, pain and stroke (discriminant analysis): korrelieren in signifikanter Weise
i.p., 160 mg/kg, first hour after administration
  delta, theta und alpha2 Frequenzen: Abfall
i.p., 160 mg/kg, whole test period
  duration for which the pattern (decrease of delta, theta, alpha2) was observed: 5 Stunden
i.p., 80 and 160 mg/kg, versus pre-drug baseline
  Veränderungen der Leistungsdichte in den einzelen Hirnregionen: dosis-abhängig zu deutlichen Veränderungen
i.p., after 80 and 160 mg/kg, versus saline
  Muster der EEG-Frequenzänderungen: stabiles, statistisch signifikantes Muster
